Measured values taken from PMC8253220, “Molecular design, synthesis and in vitro biological evaluation of thienopyrimidine–hydroxamic acids as chimeric kinase HDAC inhibitors: a challenging approach to combat cancer” (Journal of Enzyme Inhibition and Medicinal Chemistry, 2021).
Several values for one entry are separate records, joined by “and”; a condition that tells them apart may be missing. Identical values can stand only once.

Columns and labels:
VEGFR-2 = VEGFR-2 (Homo sapiens, UniProt P35968); test: In vitro VEGFR-2 tyrosine kinase inhibitory assay (Z'-LYTE, SelectScreen); format: biochemical; details: 10 µM single dose
Procedure, shortened: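 Z'-LYTE fluorescence coupled-enzyme format, read-out based on differential protease cleavage of phosphorylated vs non-phosphorylated peptide. Compounds screened at 10 µM single dose for % inhibition, then selected ones tested at 0.1 nM–10 µM for IC50 by curve fitting.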

MALME-3M = test: NCI one-dose screen; format: cell-based, human; details: Melanoma MALME-3M, 10 µM single dose
Procedure, shortened: (§1)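 One concentration (10 μM) applied to each line of the full NCI-60 panel; percent growth compared against untreated cells.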

HT29 = test: NCI one-dose screen; format: cell-based, human; details: Colon HT29, 10 µM single dose
Procedure, shortened: as §1

SK-OV-3 = test: NCI one-dose screen; format: cell-based, human; details: Ovarian SK-OV-3, 10 µM single dose
Procedure, shortened: as §1

SNB-75 = test: NCI one-dose screen; format: cell-based, human; details: CNS SNB-75, 10 µM single dose
Procedure, shortened: (§2)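 At 10 μM, a single concentration, compounds were evaluated for antiproliferative effect in the NCI 60-line screen, with growth expressed relative to untreated control cells.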

A549/ATCC = test: NCI one-dose screen; format: cell-based, human; details: NSCLC A549/ATCC, 10 µM single dose
Procedure, shortened: as §1

ACHN = test: NCI one-dose screen; format: cell-based, human; details: Renal ACHN, 10 µM single dose
Procedure, shortened: as §1

SF-539 = test: NCI one-dose screen; format: cell-based, human; details: CNS SF-539, 10 µM single dose
Procedure, shortened: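 Treated at 10 μM (single dose) within the NCI full 60-line panel. Inhibition % computed from growth against untreated control.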

HCT-116 = test: NCI one-dose screen; format: cell-based, human; details: Colon HCT-116, 10 µM single dose
Procedure, shortened: as §1

NCI-H522 = test: NCI one-dose screen; format: cell-based, human; details: NSCLC NCI-H522, 10 µM single dose
Procedure, shortened: as §2

RXF 393 = test: NCI one-dose screen; format: cell-based, human; details: Renal RXF 393, 10 µM single dose
Procedure, shortened: as §1

OVCAR-3 = test: NCI one-dose screen; format: cell-based, human; details: Ovarian OVCAR-3, 10 µM single dose
Procedure, shortened: as §1

MDA-MB-231/ATCC = test: NCI one-dose screen; format: cell-based, human; details: Breast MDA-MB-231/ATCC, 10 µM single dose
Procedure, shortened: as §1

Chain of VEGFR-2 (P35968 20-1356): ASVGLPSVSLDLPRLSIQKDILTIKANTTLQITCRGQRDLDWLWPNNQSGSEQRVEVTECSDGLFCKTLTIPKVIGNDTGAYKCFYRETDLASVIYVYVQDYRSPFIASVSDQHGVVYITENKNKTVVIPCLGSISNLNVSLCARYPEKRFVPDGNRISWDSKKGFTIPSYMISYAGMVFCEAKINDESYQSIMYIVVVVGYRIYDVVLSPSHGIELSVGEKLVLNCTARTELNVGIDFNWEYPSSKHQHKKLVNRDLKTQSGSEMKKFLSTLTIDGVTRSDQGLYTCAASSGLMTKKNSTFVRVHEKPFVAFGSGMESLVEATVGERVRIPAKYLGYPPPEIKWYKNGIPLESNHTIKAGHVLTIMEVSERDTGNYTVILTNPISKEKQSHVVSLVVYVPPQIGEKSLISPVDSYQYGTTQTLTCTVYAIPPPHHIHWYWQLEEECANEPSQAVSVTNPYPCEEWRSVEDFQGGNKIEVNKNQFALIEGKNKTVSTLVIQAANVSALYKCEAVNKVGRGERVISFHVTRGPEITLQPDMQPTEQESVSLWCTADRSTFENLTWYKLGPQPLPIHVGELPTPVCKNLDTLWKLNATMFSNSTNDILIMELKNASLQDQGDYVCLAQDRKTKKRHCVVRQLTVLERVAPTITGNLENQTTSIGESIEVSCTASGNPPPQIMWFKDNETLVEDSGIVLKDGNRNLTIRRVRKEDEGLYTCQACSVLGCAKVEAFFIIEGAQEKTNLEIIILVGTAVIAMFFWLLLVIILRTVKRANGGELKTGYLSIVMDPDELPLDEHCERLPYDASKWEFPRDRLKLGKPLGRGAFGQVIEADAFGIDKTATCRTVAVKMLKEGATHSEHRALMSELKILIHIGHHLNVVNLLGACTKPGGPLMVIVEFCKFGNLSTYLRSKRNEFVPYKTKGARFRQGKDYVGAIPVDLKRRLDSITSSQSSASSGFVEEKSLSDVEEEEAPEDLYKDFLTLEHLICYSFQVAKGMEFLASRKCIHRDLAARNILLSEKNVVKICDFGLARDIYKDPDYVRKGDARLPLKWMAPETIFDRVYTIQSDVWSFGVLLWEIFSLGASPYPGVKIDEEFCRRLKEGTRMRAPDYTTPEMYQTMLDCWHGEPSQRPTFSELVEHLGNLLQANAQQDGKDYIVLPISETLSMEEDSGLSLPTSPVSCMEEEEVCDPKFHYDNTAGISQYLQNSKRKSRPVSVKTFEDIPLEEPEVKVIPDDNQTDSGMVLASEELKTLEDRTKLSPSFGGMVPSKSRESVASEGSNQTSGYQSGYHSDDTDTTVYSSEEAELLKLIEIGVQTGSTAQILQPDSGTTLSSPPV

Structure (SMILES) | inhibition at 10 µM (VEGFR-2) [%] | Growth Percent (MALME-3M) | Growth Percent (HT29) | Growth Percent (SK-OV-3) | Growth Percent (SNB-75) | Growth Percent (A549/ATCC) | Growth Percent (ACHN) | Growth Percent (SF-539) | Growth Percent (HCT-116) | Growth Percent (NCI-H522) | Growth Percent (RXF 393) | Growth Percent (OVCAR-3) | Growth Percent (MDA-MB-231/ATCC)
Cc1c(C(=O)NCCC(=O)NO)sc2ncnc(Nc3ccc(F)c(Cl)c3)c12 [Compound 19d, 4–(3-chloro-4-fluorophenylamino)-N-(3-(hydroxyamino)-3-oxopropyl)-5-methylthieno[2,3-d]pyrimidine-6-carboxamide] | 26 | 112.6% and 112.63% | 104.1% | 129.2% and 129.24% | 97.5% | 104.3% and 104.35% | 102.1% and 102.14% | 98.0% and 98.02% | 107.3% | 95.5% and 95.56% | 102.0% and 102.06% | 106.5% | 102.5% and 102.53%
Cc1c(C(=O)NCCCC(=O)NO)sc2ncnc(Nc3ccccc3)c12 [Compound 20b, N-(4-(hydroxyamino)-4-oxobutyl)-5-methyl-4-(phenylamino)thieno[2,3-d]pyrimidine-6-carboxamide] | 25 | 111.9% and 111.93% | 102.3% and 102.36% | 125.1% and 125.12% | 95.6% | 98.8% and 98.87% | 103.8% and 103.87% | 96.9% and 96.91% | 104.9% and 104.93% | 89.7% and 89.77% | 98.6% and 98.66% | 109.4% and 109.49% | 110.9% and 110.91%
Cc1c(C(=O)NCCCC(=O)NO)sc2ncnc(Nc3ccc(Cl)cc3)c12 [Compound 20c, 4–(4-chlorophenylamino)-N-(4-(hydroxyamino)-4-oxobutyl)-5-methylthieno[2,3-d]pyrimidine-6-carboxamide] | 35 | 112.5% and 112.53% | 108.2% and 108.21% | 112.9% and 112.92% | 79.1% and 79.17% | 104.4% and 104.46% | 105.1% and 105.18% | 95.3% and 95.36% | 108.2% and 108.21% | 91.2% and 91.22% | 109.5% and 109.55% | 106.5% and 106.57% | 95.4% and 95.46%
Cc1c(C(=O)NCCCC(=O)NO)sc2ncnc(Nc3ccc(F)c(Cl)c3)c12 [Compound 20d, 4–(3-chloro-4-fluorophenylamino)-N-(4-(hydroxyamino)-4-oxobutyl)-5-methylthieno[2,3-d]pyrimidine-6-carboxamide] | 20 | 115.8% and 115.88% | 107.1% and 107.13% | 122.6% and 122.66% | 90.4% and 90.45% | 94.0% and 94.08% | 102.2% and 102.28% | 100.8% and 100.82% | 105.9% and 105.97% | 92.6% and 92.67% | 102.5% and 102.57% | 108.4% and 108.42% | 99.7% and 99.77%
